According to publication PMC11853949 (European journal of medicinal chemistry, 2025):

Tested on: Vγ9Vδ2 T cells exposed to compound-loaded K562 cells
Test: Vγ9Vδ2 T cell interferon γ ELISA with compound-loaded K562 cells
Format: cell-based, human
Conditions: versus aryl amidate range 110-230 nM

**Q.** How did the “fold more active than aryl amidates (1 hour cytokine EC50)” value turn out when `C/C(=C\CCP(=O)(OCOC(=O)c1cn(-c2ccc(F)cc2)nn1)Oc1ccccc1)CO` (stereo not shown) [Compound 25b, (E)-(((5-Hydroxy-4-methylpent-3-en-1-yl)(phenoxy)phosphoryl)oxy)methyl-1-(4-fluorophenyl)-1H-1,2,3-triazole-4-carboxylate] was run?
**A.** The value was “more than 100 fold”.
